22 molecules from patent US7491794B2, “Macrocyclic compounds as inhibitors of viral replication” (Intermune, Inc., priority 2003, dated 2009) can be followed below.

Molecules are shown by their SMILES. A value given as a limit tells only on which side of the number the result lay.

The target of this assay is T1, NS3-NS4 protease (Hepatitis C virus genotype 1a, UniProt P27958).
T1 construct: Recombinant E. coli or Baculovirus full-length NS3 was diluted to 3.33 μM with assay buffer; made in house; host or cells: E. coli or baculovirus (BV) system
T1 sequence (P27958 1027-1657): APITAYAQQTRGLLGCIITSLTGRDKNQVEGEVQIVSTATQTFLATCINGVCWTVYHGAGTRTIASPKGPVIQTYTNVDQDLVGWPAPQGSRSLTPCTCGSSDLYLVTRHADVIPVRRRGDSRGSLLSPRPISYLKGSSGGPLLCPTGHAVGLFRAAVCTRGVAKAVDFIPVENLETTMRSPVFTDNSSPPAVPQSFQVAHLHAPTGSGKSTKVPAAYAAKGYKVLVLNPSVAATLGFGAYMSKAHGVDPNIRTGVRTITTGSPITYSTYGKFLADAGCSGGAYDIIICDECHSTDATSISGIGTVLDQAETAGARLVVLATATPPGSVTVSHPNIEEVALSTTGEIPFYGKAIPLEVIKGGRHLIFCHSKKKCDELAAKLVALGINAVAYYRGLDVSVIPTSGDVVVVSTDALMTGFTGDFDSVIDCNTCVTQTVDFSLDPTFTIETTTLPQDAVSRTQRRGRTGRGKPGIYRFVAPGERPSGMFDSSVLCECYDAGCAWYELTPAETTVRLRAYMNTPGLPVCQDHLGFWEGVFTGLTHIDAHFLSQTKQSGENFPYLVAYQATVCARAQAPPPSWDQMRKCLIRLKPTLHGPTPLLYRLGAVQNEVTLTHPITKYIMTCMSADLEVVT
Kind of assay: NS3-NS4 protease assay / NS3 inhibition assay, Section D. It is filed as biochemical. The protocol: NS3-NS4 Protease Assay NS3 complex formation with NS4A-2.
Recombinant E. coli or Baculovirus full-length NS3 was diluted to 3.33 μM with assay buffer and transferred material to an eppendorf tube and place in water bath in 4° C. refrigerator. The appropriate amount of NS4A-2 to 8.3 mM in assay buffer was added to equal the volume of NS3 in step 2.1.1 (conversion factor −3.8 mg/272 μL assay buffer). The material was transferred to an eppendorf tube and place in water bath in 4° C. refrigerator.
After equilibration to 4° C., equal volumes of NS3 and NS4A-2 solutions were combined in an eppendorf tube, mix gently with a manual pipettor, and incubate mixture for 15 minutes in the 4° C. water bath. Final concentrations in the mixture are 1.67 μM NS3, 4.15 mM NS4A-2 (2485-fold molar excess NS4A-2).
After 15 minutes at 4° C., the NS3/NS4A-2 eppendorf tube was removed and placed in a room temperature water bath for 10 minutes. NS3/NS4A-2 was alliquoted at appropriate volumes and store at −80° C. (E. coli NS3 run at 2 nM in assay, aliquot at 25 μL. BV NS3 run at 3 nM in assay, aliquot at 30 μL).
Sample compounds were dissolved to 10 mM in DMSO then diluted to 2.5 mM (1:4) in DMSO.
The E. coli. NS3/NS4A-2 was diluted to 4 nM NS3 (1:417.5 of 1.67 μM stock−18 μL 1.67 μM stock+7497 μL assay buffer).
The BV NS3/NS4A-2 was diluted to 6 nM NS3 (1:278.3 of 1.67 μM stock−24 μL 1.67 μM stock+6655 μL assay buffer).
Using the manual multichannel pipettor, careful not to introduce bubbles into the plate, add 50 μL assay buffer to wells A01-H01 of a black Costar 96-well polypropylene storage plate.
Using the manual multichannel pipettor, careful not to introduce bubbles into the plate, add 50 μL of diluted NS3/NS4A-2 from step 2.2.6 to wells A02-H12 of plate in step 2.2.7.
Using the manual multichannel pipettor, careful not to introduce bubbles into the plate, transfer 25 μL of the wells in drug dilution plate in step 2.2.5 to corresponding wells in assay plate in step 2.2.8. Change tips on multichannel pipettor for each row of compounds transferred.
Using the manual multichannel pipettor, careful not to introduce bubbles into the plate, mix the wells from the assay plate in step 2.2.9 by aspirating and dispensing 35 μL of the 75 μL in each well five times. Change tips on multichannel pipettor for each row of wells mixed.
Cover plate with a polystyrene plate lid and pre-incubate the plate from step 2.2.10 containing NS3 protease and sample compounds 10 minutes at room temperature.
While plate from step 2.2.11 is pre-incubating, dilute RETS1 substrate in a 15 mL polypropylene centrifuge tube.
Dilute RETS1 substrate to 8 μM (1:80.75 of 646 μM stock−65 μL 646 μM stock+5184 μL assay buffer).
After the plate in step is done pre-incubating, and using the manual multichannel, add 25 μL of substrate to all wells on the plate. Quickly mix the plate as in step 2.2.10, mixing 65 μL of the 100 μL in the wells.
Read the plate in kinetic mode on the Molecular Devices SpectraMax Gemini XS plate reader. Reader settings: Read time: 30 minutes, Interval: 36 seconds, Reads: 51, Excitation k: 335 nm, Emission k: 495 nm, cutoff: 475 nm, Automix: off, Calibrate: once, PMT: high, Reads/well: 6, Vmax pts: 21 or 28/51 depending on length of linearity of reaction.
IC50s are determined using a four parameter curve fit equation, and converted to Ki's using the following Km's:
where Ki=IC50/(1+[S]/Km))
The molecule `O=C(CCC(F)(F)F)N[C@H]1CCCCC/C=C\[C@@H]2C[C@@]2(C(=O)NS(=O)(=O)C2CC2)NC(=O)[C@@H]2C[C@@H](NC(=O)c3sc4ccccc4c3Cl)CN2C1=O` [Example 50] returned an IC50 below 0.1 µM. In turn, `CC(C)(C)OC(=O)N[C@H]1CCCCC/C=C\[C@@H]2C[C@@]2(C(=O)O)NC(=O)[C@@H]2C[C@@H](NC(=O)c3ccc4cccnc4c3)CN2C1=O` [Example 67] had an IC50 below 10 µM. `CC(C)(C)OC(=O)N[C@H]1CCCCC/C=C\[C@@H]2C[C@@]2(C(=O)NS(=O)(=O)C2CC2)NC(=O)[C@@H]2C[C@@H](NC(=O)c3csc(-c4ccccc4Cl)n3)CN2C1=O` [Example 25] had an IC50 below 0.1 µM.

The molecule `CC(C)(C)OC(=O)N[C@H]1CCCCC/C=C\[C@@H]2C[C@@]2(C(=O)O)NC(=O)[C@@H]2C[C@@H](NC(=O)c3ccccc3)CN2C1=O` [Example 60] displayed an IC50 below 10 µM. As for `CC(C)(C)OC(=O)N[C@H]1CCCCC/C=C\[C@@H]2C[C@@]2(C(=O)NS(=O)(=O)C2CC2)NC(=O)[C@@H]2C[C@@H](NC(=O)c3sc4cccc(Cl)c4c3Cl)CN2C1=O` [Example 45], the IC50 was below 0.1 µM. Then `CC(C)(C)OC(=O)N[C@H]1CCCCC/C=C\[C@@H]2C[C@@]2(C(=O)NS(=O)(=O)C2CC2)NC(=O)[C@@H]2C[C@@H](NC(=O)c3cc4ccccc4o3)CN2C1=O` [Example 39], with below 0.1 µM; and `CC(C)(C)OC(=O)N[C@H]1CCCCC/C=C\[C@@H]2C[C@@]2(C(=O)NS(=O)(=O)C2CC2)NC(=O)[C@@H]2C[C@@H](NC(=O)c3ccc(C(N)=O)cc3)CN2C1=O` [Example 18], with below 0.1 µM; and `CC(C)(C)OC(=O)N[C@H]1CCCCC/C=C\[C@@H]2C[C@@]2(C(=O)NS(=O)(=O)C2CC2)NC(=O)[C@@H]2C[C@@H](NC(=O)c3ccc4ccccc4c3)CN2C1=O` [Example 27], with below 0.1 µM. As for `COc1ccc(C(=O)N[C@@H]2C[C@H]3C(=O)N[C@]4(C(=O)NS(=O)(=O)C5CC5)C[C@H]4/C=C\CCCCC[C@H](NC(=O)OC4CCCC4)C(=O)N3C2)cc1` [Example 56], the figure is below 0.1 µM. In the case of `CC(C)(C)OC(=O)N[C@H]1CCCCC/C=C\[C@@H]2C[C@@]2(C(=O)NS(=O)(=O)C2CC2)NC(=O)[C@@H]2C[C@@H](NC(=O)c3ccc4ncccc4c3)CN2C1=O` [Example 28], the IC50 was below 0.1 µM.

`CC(C)(C)OC(=O)N[C@H]1CCCCC/C=C\[C@@H]2C[C@@]2(C(=O)O)NC(=O)[C@@H]2C[C@@H](NC(=O)c3cc4ccccc4[nH]3)CN2C1=O` [Example 63] had an IC50 below 1 µM. Then `CC(C)(C)OC(=O)N[C@H]1CCCCC/C=C\[C@@H]2C[C@@]2(C(=O)NS(=O)(=O)C2CC2)NC(=O)[C@@H]2C[C@@H](NC(=O)c3ccc(-n4ccnc4)cc3)CN2C1=O` [Example 20], with below 0.1 µM; and `CC(C)(C)OC(=O)N[C@H]1CCCCC/C=C\[C@@H]2C[C@@]2(C(=O)NS(=O)(=O)C2CC2)NC(=O)[C@@H]2C[C@@H](NC(=O)c3sc4ccccc4c3Cl)CN2C1=O` [Example 1], with below 0.1 µM; and `CC(C)(C)OC(=O)N[C@H]1CCCCC/C=C\[C@@H]2C[C@@]2(C(=O)NS(=O)(=O)C2CC2)NC(=O)[C@@H]2C[C@@H](NC(=O)c3cnc4ccccc4c3)CN2C1=O` [Example 29], with below 0.1 µM. Then `CCc1ccc(C(=O)N[C@@H]2C[C@H]3C(=O)N[C@]4(C(=O)NS(=O)(=O)C5CC5)C[C@H]4/C=C\CCCCC[C@H](NC(=O)OC(C)(C)C)C(=O)N3C2)cc1` [Example 3], with below 0.1 µM.

Take `COc1cccc2cc(C(=O)N[C@@H]3C[C@H]4C(=O)N[C@]5(C(=O)NS(=O)(=O)C6CC6)C[C@H]5/C=C\CCCCC[C@H](NC(=O)OC(C)(C)C)C(=O)N4C3)oc12` [Example 42]: the IC50 was below 0.1 µM. As for `CC(C)(C)OC(=O)N[C@H]1CCCCC/C=C\[C@@H]2C[C@@]2(C(=O)NS(=O)(=O)C2CC2)NC(=O)[C@@H]2C[C@@H](NC(=O)c3c(Cl)cc(Cl)cc3Cl)CN2C1=O` [Example 5], the figure is below 0.1 µM. `CC(C)(C)OC(=O)N[C@H]1CCCCC/C=C\[C@@H]2C[C@@]2(C(=O)O)NC(=O)[C@@H]2C[C@@H](NC(=O)c3cc4ccccc4s3)CN2C1=O` [Example 59] had a 50% inhibitory concentration (IC50) below 10 µM. Then `COc1ccc(C(=O)N[C@@H]2C[C@H]3C(=O)N[C@]4(C(=O)NS(=O)(=O)C5CC5)C[C@H]4/C=C\CCCCC[C@H](NC(=O)OC(C)(C)C)C(=O)N3C2)cc1C(F)(F)F` [Example 8], with below 0.1 µM. In the case of `COc1ccc(C(=O)N[C@@H]2C[C@H]3C(=O)N[C@]4(C(=O)NS(=O)(=O)C5CC5)C[C@H]4/C=C\CCCCC[C@H](NC(=O)NC4CCCC4)C(=O)N3C2)cc1C(F)(F)F` [Example 58], the IC50 is below 0.1 µM. On to `COc1ccc2[nH]c(C(=O)N[C@@H]3C[C@H]4C(=O)N[C@]5(C(=O)NS(=O)(=O)C6CC6)C[C@H]5/C=C\CCCCC[C@H](NC(=O)OC(C)(C)C)C(=O)N4C3)cc2c1` [Example 33], for which the IC50 is below 0.1 µM. As for `CC(C)(C)OC(=O)N[C@H]1CCCCC/C=C\[C@@H]2C[C@@]2(C(=O)NS(=O)(=O)C2CC2)NC(=O)[C@@H]2C[C@@H](NC(=O)c3ccc(Cl)c(Cl)c3)CN2C1=O` [Example 16], the figure is below 0.1 µM.
